Assay results reported in ChEMBL document CHEMBL4808180, “Identification of 2,2-Dimethylbutanoic Acid (HST5040), a Clinical Development Candidate for the Treatment of Propionic Acidemia and Methylmalonic Acidemia” (J Med Chem, 2021).

Assays:
[1] = Reduction of propionyl carnitine in human hepatocytes derived from methylmalonic acidemia patient pretreated for 30 mins followed by 13C-isoleucine addition and measured after 1 hr by MS/MS analysis; type: functional, cell-based; conditions: hepatocyte
[2] = Reduction of acetyl carnitine in human hepatocytes derived from propionic acidemia patient pretreated for 30 mins followed by 13C-isoleucine addition and measured after 1 hr by MS/MS analysis; type: functional, cell-based; conditions: hepatocyte
[3] = Reduction of CoASH in human hepatocytes derived from methylmalonic acidemia at 30 uM pretreated for 30 mins followed by 13C-isoleucine addition and measured after 1 hr by MS/MS analysis; type: functional, Hepatocyte; set-up: scale not given: the % may be the effect or the level left; conditions: time 90 min, 1.5 h
[4] = Drug metabolism in cynomolgus monkey hepatocytes assessed as formation of 2,2-dimethylbutanoic acid-CoA incubated for 1 hrs by MS/MS analysis; type: ADME, cell-based; conditions: Macaca fascicularis, Hepatocyte
[5] = Apparent permeability of the compound across apical to basal side in human Caco-2 cells; type: ADME, cell-based
[6] = Ratio of drug level in erythrocyte to plasma in Sprague-Dawley rat; type: ADME; conditions: erythrocytes and plasma
[7] = AUC (0 to infinity) in CD1 mouse at 30 mg/kg, iv; type: ADME, organism-based; set-up: time infinity, route intravenous, dose 30 mg/kg; conditions: in vivo
[8] = Half life in Sprague-Dawley rat at 10 mg/kg, po; type: ADME, organism-based; conditions: in vivo
[9] = Cmax in Gottingen minipig at 10 mg/kg, po using radiolabeled compound by quantitative whole-body autoradiography; type: ADME, organism-based, Sus scrofa domesticus; set-up: route oral, dose 10 mg/kg; conditions: pig, in vivo
[10] = Tmax in Gottingen minipig at 10 mg/kg, po using radiolabeled compound by quantitative whole-body autoradiography; type: ADME, organism-based, Sus scrofa domesticus; conditions: pig, in vivo
[11] = Drug metabolism in Sprague-Dawley rat plasma assessed as HST5040-glycine metabolite formation at 10 mg/kg administered as single dose using radiolabeled compound by LC/MS analysis; type: ADME, organism-based; conditions: in vivo
[12] = Drug metabolism in Sprague-Dawley rat urine assessed as HST5040-glycine metabolite formation at 10 mg/kg administered as single dose by LC/MS analysis; type: ADME, organism-based; conditions: in vivo
[13] = Drug metabolism in Gottingen minipig plasma assessed as HST5040-glycine metabolite formation at 10 mg/kg administered as single dose by LC/MS analysis; type: ADME, organism-based, Sus scrofa domesticus; conditions: pig, in vivo
[14] = molecular target: T1, Broad substrate specificity ATP-binding cassette transporter ABCG2 (Homo sapiens, UniProt Q9UNQ0); test: Inhibition of human BCRP assessed as reduction in E3S transport at 24000 uM relative to control
T1 sequence (Q9UNQ0 whole entry): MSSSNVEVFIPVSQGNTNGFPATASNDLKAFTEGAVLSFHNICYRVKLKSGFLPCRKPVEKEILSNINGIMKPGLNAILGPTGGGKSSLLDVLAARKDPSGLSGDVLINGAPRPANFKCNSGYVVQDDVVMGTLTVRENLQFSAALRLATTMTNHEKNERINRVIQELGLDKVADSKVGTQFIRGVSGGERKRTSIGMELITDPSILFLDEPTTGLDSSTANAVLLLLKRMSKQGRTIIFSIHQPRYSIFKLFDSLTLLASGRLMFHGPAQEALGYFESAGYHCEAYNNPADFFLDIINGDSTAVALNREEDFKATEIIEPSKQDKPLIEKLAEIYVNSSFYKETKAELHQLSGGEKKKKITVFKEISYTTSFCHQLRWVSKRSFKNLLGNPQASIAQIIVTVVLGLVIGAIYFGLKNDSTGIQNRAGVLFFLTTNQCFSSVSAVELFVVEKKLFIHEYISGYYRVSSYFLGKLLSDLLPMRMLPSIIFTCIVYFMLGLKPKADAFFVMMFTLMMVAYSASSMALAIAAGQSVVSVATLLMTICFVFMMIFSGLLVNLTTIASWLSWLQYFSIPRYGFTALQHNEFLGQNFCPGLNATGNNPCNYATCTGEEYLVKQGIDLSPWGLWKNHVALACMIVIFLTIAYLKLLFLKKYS

OATP1B1 = molecular target: T2, OATP1B1 (Homo sapiens, UniProt Q9Y6L6); test: Inhibition of human OATP1B1 assessed as reduction in OATP1B1- mediated E217betaG transport at 14900 uM relative to control; conditions: not told, probe E217betaG
T2 sequence (Q9Y6L6 whole entry): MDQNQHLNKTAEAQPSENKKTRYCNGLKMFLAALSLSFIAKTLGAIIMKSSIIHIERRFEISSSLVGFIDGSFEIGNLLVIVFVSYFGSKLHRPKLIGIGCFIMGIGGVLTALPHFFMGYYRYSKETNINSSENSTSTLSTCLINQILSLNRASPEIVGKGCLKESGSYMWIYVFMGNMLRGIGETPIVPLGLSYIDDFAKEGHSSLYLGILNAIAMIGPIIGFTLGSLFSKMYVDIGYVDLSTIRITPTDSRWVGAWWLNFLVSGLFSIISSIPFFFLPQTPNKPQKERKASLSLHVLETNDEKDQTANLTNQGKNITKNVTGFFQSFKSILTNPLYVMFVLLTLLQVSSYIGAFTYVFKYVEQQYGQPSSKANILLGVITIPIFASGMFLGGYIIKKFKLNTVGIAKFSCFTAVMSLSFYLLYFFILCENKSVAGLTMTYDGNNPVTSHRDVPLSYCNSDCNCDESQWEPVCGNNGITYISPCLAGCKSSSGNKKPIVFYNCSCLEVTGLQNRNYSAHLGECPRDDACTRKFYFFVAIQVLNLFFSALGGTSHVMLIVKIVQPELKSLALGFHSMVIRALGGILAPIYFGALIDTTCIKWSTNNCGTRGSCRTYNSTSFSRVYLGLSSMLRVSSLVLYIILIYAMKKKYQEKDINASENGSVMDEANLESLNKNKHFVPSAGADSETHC

OATP1B3 = molecular target: T3, OATP1B3 (Homo sapiens, UniProt Q9NPD5); test: Inhibition of human OATP1B3 assessed as reduction in OATP1B3-mediated E217betaG transport at 14900 uM relative to control; conditions: not told, probe E217betaG
T3 sequence (Q9NPD5 whole entry): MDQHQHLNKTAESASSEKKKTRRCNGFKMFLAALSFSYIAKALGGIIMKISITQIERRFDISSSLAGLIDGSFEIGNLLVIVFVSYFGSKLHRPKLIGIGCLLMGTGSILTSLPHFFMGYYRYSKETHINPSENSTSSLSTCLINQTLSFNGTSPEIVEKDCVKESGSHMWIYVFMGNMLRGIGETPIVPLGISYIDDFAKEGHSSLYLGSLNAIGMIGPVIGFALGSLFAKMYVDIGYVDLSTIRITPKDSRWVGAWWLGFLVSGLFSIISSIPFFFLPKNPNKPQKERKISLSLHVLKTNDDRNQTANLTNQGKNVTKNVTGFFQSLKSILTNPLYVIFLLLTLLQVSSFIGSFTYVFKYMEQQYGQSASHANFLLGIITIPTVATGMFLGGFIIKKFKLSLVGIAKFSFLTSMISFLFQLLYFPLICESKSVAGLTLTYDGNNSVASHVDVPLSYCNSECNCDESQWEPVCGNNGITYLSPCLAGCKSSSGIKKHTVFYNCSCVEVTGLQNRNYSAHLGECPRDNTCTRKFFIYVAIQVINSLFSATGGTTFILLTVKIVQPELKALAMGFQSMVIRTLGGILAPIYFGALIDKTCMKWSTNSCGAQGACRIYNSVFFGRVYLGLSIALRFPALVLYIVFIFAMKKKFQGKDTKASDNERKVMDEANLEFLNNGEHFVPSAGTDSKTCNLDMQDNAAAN

CCC(C)(C)C(=O)O [DIMEBUTIC ACID]
EC50 [1]: 1400 nM
EC50 [2]: 4.8 µM
Activity [3]: -22.3%
EC50 [4]: 46.2 µM
Papp A→B [5]: > 20 ×10⁻⁶ cm/s
Kp [6]: 0.649
AUC(0-inf) [7]: 70200 ng·h/mL
half-life [8]: 190 min
Cmax [9]: 16100 ng/mL
Tmax [10]: 30 min
Drug metabolism [11]: Metabolite_Detected
Drug metabolism [12]: Metabolite_Detected
Drug metabolism [13]: Metabolite_Detected
inhibition (INH) [14]: Not Active
inhibition at 14900 µM (OATP1B1): 25.9%
inhibition at 14900 µM (OATP1B3): 31.5%
